Laboratory results from patent publication US9175007B2, “IRAK inhibitors and uses thereof” (Nimbus Iris, Inc., priority 2013, dated 2015).

Molecular target: T1, IRAK4 (Homo sapiens, UniProt Q9NWZ3)
T1 construct: purchased CARNA Bioscience 09-145
T1 sequence (Q9NWZ3 1-460): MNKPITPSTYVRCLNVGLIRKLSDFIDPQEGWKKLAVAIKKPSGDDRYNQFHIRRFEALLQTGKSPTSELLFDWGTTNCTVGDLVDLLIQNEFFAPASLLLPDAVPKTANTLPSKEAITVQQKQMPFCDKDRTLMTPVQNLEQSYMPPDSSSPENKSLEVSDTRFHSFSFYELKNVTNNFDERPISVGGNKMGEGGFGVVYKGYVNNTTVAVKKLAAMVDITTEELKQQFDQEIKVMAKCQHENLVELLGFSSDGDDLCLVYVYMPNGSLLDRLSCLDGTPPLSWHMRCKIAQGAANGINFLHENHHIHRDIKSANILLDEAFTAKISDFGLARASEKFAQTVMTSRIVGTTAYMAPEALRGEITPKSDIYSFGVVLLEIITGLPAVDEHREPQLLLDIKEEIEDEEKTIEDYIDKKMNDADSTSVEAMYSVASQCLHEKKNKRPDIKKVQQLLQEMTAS
Test: IRAK-4 activity inhibition assay (Caliper)
Type: biochemical
Conditions: 3.5 nM IRAK4, 37 μM ATP, 1.5 μM Peptide 8
Protocol: A 1× kinase base buffer was prepared from 50 mM HEPES, pH 7.5 and 0.0015% Brij-35. A stop buffer was prepared from 100 mM HEPES, pH 7.5, 0.015% Brij-35, 0.2% Coating Reagent #3, and 50 mM EDTA.
Test compound was diluted to 50× of the final desired highest inhibitor concentration in reaction by 100% DMSO. 100 ul of this compound dilution was transferred to a well in a 96-well plate.
Test compound was serially diluted by transferring 30 μl to 60 μl of 100% DMSO in the next well and so forth for a total of 10 concentrations. 100 μl of 100% DMSO was added to two empty wells for no compound control and no enzyme control in the same 96-well plate.
A new 96-well plate was marked as intermediate plate. 5 μl of compound serial dilution was transferred from source plate to the corresponding wells of the intermediate plate. 45 μl of 1× kinase base buffer (KB buffer) was added to each well of the intermediate plate. The intermediate plate was placed for 10 min on a shaker.
5 μl of each well was transferred from the 96-well intermediate plate to a 384-well plate in duplicates. For example, A1 of the 96-well plate is transferred to A1 and A2 of the 384-well plate. A2 of the 96-well plate is transferred to A3 and A4 of the 384-well plate, and so on.
IRAK4 and DTT in 1× kinase base buffer was added. The 2.5× enzyme mix contained 8.8 nM IRAK4 and 5 mM DTT.
Peptide 8, ATP, MgCl2 and MnCl2 were added in the 1× kinase base buffer. The 2.5× peptide mix contained 3.75 μM peptide 8, 92.5 μM ATP, 12.5 mM MgCl2 and 2.5 mM MnCl2.
Assay plate already contained 5 μl of compound in 10% DMSO. Added 10 μl of 2.5× enzyme solution to each well of the 384-well assay plate, except no enzyme control wells. The final concentration of IRAK4 in reaction was 3.5 nM. Added 10 μl of 1× kinase base buffer to no enzyme control wells in the assay plate. Incubated at room temperature for 10 min.
Added 10 μl of 2.5× peptide solution to each well of the 384-well assay plate. The final concentration of Peptide 8 and ATP was 1.5 μM and 37 μM, respectively. Incubated at 28° C. for 40 minutes. Added 25 μl of stop buffer to stop reaction. Collected data on Caliper.
Copied conversion % data from Caliper program. Converted conversion % values to percent inhibition values. Percent inhibition=(max-conversion %)/(max-min)*100, where “max” means the conversion % of DMSO control and “min” means the conversion % of no enzyme control.

Row | SMILES | IC50 [µM]
1 | c1ccc(Nc2nc(N[C@H]3CC[C@H](N4CCOCC4)CC3)c3c4c(sc3n2)CCC4)cc1 [Compound I-1, N4-((1r,4r)-4-morpholinocyclohexyl)-N2-phenyl-6,7-dihydro-5H-cyclopenta[4,5]thieno[2,3-d]pyrimidine-2,4-diamine] | ≤ 5
2 | CN(C)[C@H]1CC[C@H](Oc2nc(Nc3ccccc3)nc3sc4c(c23)CCC4)CC1 [Compound I-2, 12-[[4-(dimethylamino)cyclohexyl]oxy]-N-phenyl-7-thia-9,11-diazatricyclo[6.4.0.0[2,6]]dodeca-1(8),2(6),9,11-tetraen-10-amine] | ≤ 5
3 | Fc1cccc(Nc2nc(N[C@H]3CC[C@H](N4CCOCC4)CC3)c3c4c(sc3n2)CCC4)c1 [Compound I-3, N2-(3-fluorophenyl)-N4-((1r,4r)-4-morpholinocyclohexyl)-6,7-dihydro-5H-cyclopenta[4,5]thieno[2,3-d]pyrimidine-2,4-diamine] | ≤ 5
4 | Cc1cccc(Nc2nc(N[C@H]3CC[C@H](N4CCOCC4)CC3)c3c4c(sc3n2)CCC4)c1 [Compound I-4, N4-((1r,4r)-4-morpholinocyclohexyl)-N2-(m-tolyl)-6,7-dihydro-5H-cyclopenta[4,5]thieno[2,3-d]pyrimidine-2,4-diamine] | ≤ 5
5 | COc1cccc(Nc2nc(N[C@H]3CC[C@H](N4CCOCC4)CC3)c3c4c(sc3n2)CCC4)c1 [Compound I-5, 10-N-(3-methoxyphenyl)-12-N-[4-(morpholin-4-yl)cyclohexyl]-7-thia-9,11-diazatricyclo[6.4.0.0^[2,6]]dodeca-1(8),2(6),9,11-tetraene-10,12-diamine] | ≤ 5
6 | Cc1ccc(Nc2nc(N[C@H]3CC[C@H](N4CCOCC4)CC3)c3c4c(sc3n2)CCC4)cc1 [Compound I-6, N4-((1r,4r)-4-morpholinocyclohexyl)-N2-(p-tolyl)-6,7-dihydro-5H-cyclopenta[4,5]thieno[2,3-d]pyrimidine-2,4-diamine] | 20 to 50
7 | c1ccc(Nc2nc(N[C@H]3CC[C@H](N4CCOCC4)CC3)c3c4c(sc3n2)CCCC4)cc1 [Compound I-7, 3-N-[4-(morpholin-4-yl)cyclohexyl]-5-N-phenyl-8-thia-4,6-diazatricyclo[7.4.0.0[2,7]]trideca-1(9),2,4,6-tetraene-3,5-diamine] | ≤ 5
8 | c1coc(Nc2nc(N[C@H]3CC[C@H](N4CCOCC4)CC3)c3c4c(sc3n2)CCCC4)n1 [Compound I-8, 3-N-[4-(morpholin-4-yl)cyclohexyl]-5-N-(1,3-oxazol-2-yl)-8-thia-4,6-diazatricyclo[7.4.0.0[2,7]]trideca-1(9),2(7),3,5-tetraene-3,5-diamine] | 5 to 20
9 | c1coc(Nc2nc(N[C@H]3CC[C@H](N4CCOCC4)CC3)c3c4c(sc3n2)CCC4)n1 [Compound I-9, 12-N-[4-(morpholin-4-yl)cyclohexyl]-10-N-(1,3-oxazol-2-yl)-7-thia-9,11-diazatricyclo[6.4.0.0[2,6]]dodeca-1(8),2(6),9,11-tetraene-10,12-diamine] | 5 to 20
10 | CN1CCC(c2ccc(Nc3nc(N[C@H]4CC[C@H](N5CCOCC5)CC4)c4c5c(sc4n3)CCC5)cc2)CC1 [Compound I-10, 10-N-[4-(1-methylpiperidin-4-yl)phenyl]-12-N-[4-(morpholin-4-yl)cyclohexyl]-7-thia-9,11-diazatricyclo[6.4.0.0[2,6]]dodeca-1(8),2(6),9,11-tetraene-10,12-diamine] | ≤ 5
11 | c1c[nH]c(Nc2nc(N[C@H]3CC[C@H](N4CCOCC4)CC3)c3c4c(sc3n2)CCC4)n1 [Compound I-11, 10-N-(1H-imidazol-2-yl)-12-N-[4-(morpholin-4-yl)cyclohexyl]-7-thia-9,11-diazatricyclo[6.4.0.0[2,6]]dodeca-1(8),2(6),9,11-tetraene-10,12-diamine] | 20 to 50
12 | c1c[nH]c(Nc2nc(N[C@H]3CC[C@H](N4CCOCC4)CC3)c3c4c(sc3n2)CCCC4)n1 [Compound I-12, 5-N-(1H-imidazol-2-yl)-3-N-[4-(morpholin-4-yl)cyclohexyl]-8-thia-4,6-diazatricyclo[7.4.0.0[2,7]]trideca-1(9),2(7),3,5-tetraene-3,5-diamine] | 20 to 50
13 | CN(C)[C@H]1CC[C@H](Oc2nc(Nc3ccc(N4CCNCC4)cc3)nc3sc4c(c23)CCC4)CC1 [Compound I-13, 12-[[4-(dimethylamino)cyclohexyl]oxy]-N-[4-(piperazin-1-yl)phenyl]-7-thia-9,11-diazatricyclo[6.4.0.0[2,6]]dodeca-1(8),2(6),9,11-tetraen-10-amine] | ≤ 5
14 | Cn1cc(Nc2nc(NC3CCCCC3)c3c4c(sc3n2)CCC4)cn1 [Compound I-15, 12-N-cyclohexyl-10-N-(1-methyl-1H-pyrazol-4-yl)-7-thia-9,11-diazatricyclo[6.4.0.0[2,6]]dodeca-1(8),2(6),9,11-tetraene-10,12-diamine] | ≤ 5
15 | Cn1cc(Nc2nc(N[C@H]3CC[C@H](O)CC3)c3c4c(sc3n2)CCC4)cn1 [Compound I-16, 4-([10-[(1-methyl-1H-pyrazol-4-yl)amino]-7-thia-9,11-diazatricyclo[6.4.0.0[2,6]]dodeca-1(8),2(6),9,11-tetraen-12-yl]amino)cyclohexan-1-ol] | ≤ 5
16 | CN(C)[C@H]1CC[C@H](Oc2nc(Nc3ccccc3)nc3sc4c(c23)C(CC(N)=O)CC4)CC1 (stereo partly drawn) [Compound I-17, 2-(12-[[4-(dimethylamino)cyclohexyl]oxy]-10-(phenylamino)-7-thia-9,11-diazatricyclo[6.4.0.0^[2,6]]dodeca-1(12),2(6),8,10-tetraen-3-yl)acetamide] | ≤ 5
17 | CN(C)[C@H]1CC[C@H](Oc2nc(Nc3ccc(N4CCNCC4)cc3)nc3sc4c(c23)C(CC(N)=O)CC4)CC1 (stereo partly drawn) [Compound I-18, 2-(12-[[4-(dimethylamino)cyclohexyl]oxy]-10-[[4-(piperazin-1-yl)phenyl]amino]-7-thia-9,11-diazatricyclo[6.4.0.0[2,6]]dodeca-1(12),2(6),8,10-tetraen-3-yl)acetamide] | ≤ 5
18 | Cn1cc(Nc2nc(O[C@H]3CC[C@H](N(C)C)CC3)c3c4c(sc3n2)CCC4CC(N)=O)cn1 (stereo partly drawn) [Compound I-20, 2-(12-[[4-(dimethylamino)cyclohexyl]oxy]-10-[(1-methyl-1H-pyrazol-4-yl)amino]-7-thia-9,11-diazatricyclo[6.4.0.0[2,6]]dodeca-1(8),2(6),9,11-tetraen-3-yl)acetamide] | ≤ 5
19 | Cn1cc(Nc2nc(O[C@H]3CC[C@H](N(C)C)CC3)c3c4c(sc3n2)CC[C@H]4CC(N)=O)cn1 [Compound I-21, 2-[(3S)-12-[[4-(dimethylamino)cyclohexyl]oxy]-10-[(1-methyl-1H-pyrazol-4-yl)amino]-7-thia-9,11-diazatricyclo[6.4.0.0[2,6]]dodeca-1(8),2(6),9,11-tetraen-3-yl]acetamide] | ≤ 5
20 | CN1CCC(c2ccc(Nc3nc(N[C@H]4CC[C@H](N(C)C)CC4)c4c5c(sc4n3)CCC5)cc2)CC1 [Compound I-67, N4-((1r,4r)-4-(dimethylamino)cyclohexyl)-N2-(4-(1-methylpiperidin-4-yl)phenyl)-6,7-dihydro-5H-cyclopenta[4,5]thieno[2,3-d]pyrimidine-2,4-diamine] | ≤ 5
21 | CN1CCN(c2ccc(Nc3nc(O[C@H]4CC[C@H](N(C)C)CC4)c4c5c(sc4n3)CCC5)cc2)CC1 [Compound I-68, 12-[[4-(dimethylamino)cyclohexyl]oxy]-N-[4-(4-methylpiperazin-1-yl)phenyl]-7-thia-9,11-diazatricyclo[6.4.0.0[2,6]]dodeca-1(8),2(6),9,11-tetraen-10-amine] | ≤ 5
